Here are results for 17 compounds from PubChem BioAssay (NCI).

Test systems include UACC-62 melanoma; CAKI-1 renal; SNB-75 CNS; MOLT-4 leukemia; IGROV1 ovarian; HOP-62 NSCLC; HCC-2998 colon; A498 renal.
Experiment in all cases: growth of human tumour cells (NCI), 48 h

SMILES strings stand for the structures.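 Following 48 hours of exposure in 96-well plates, responses at five concentrations were used to interpolate endpoints linearly. GI50 is the concentration that inhibits growth by half. The concentration for full growth arrest is given as TGI.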

As for `COc1c2c(cc3c1C(=O)Cc1ccc4c(c1CN(C)CC3)OCO4)OCO2`, the TGI in the assay with UACC-62 melanoma, in the assay with CAKI-1 renal, with SNB-75 CNS, in the assay with MOLT-4 leukemia, with IGROV1 ovarian and with HOP-62 NSCLC was greater than 100 µM each time. The same compound gave a TGI in the assay with HCC-2998 colon greater than 100 µM.

Turning to `c1ccc(N/N=C2\NN=C(c3ccccc3)CS2)cc1`, the TGI in the assay with UACC-62 melanoma was 21.5 µM; in the assay with A498 renal it was 25.8 µM; in the assay on CAKI-1 renal it was 8.32 µM; in the assay on MOLT-4 leukemia it was 34.1 µM; with IGROV1 ovarian it was 32.3 µM; in the assay with HOP-62 NSCLC it was greater than 100 µM. The TGI in the assay with HCC-2998 colon was 19.3 µM.

Regarding `COC(=O)/C(=N\NC(N)=O)C(C(=O)C=C(C)C)C(=O)C(=O)Nc1ccc(Cl)c(Cl)c1` (centres undefined), the TGI in the assay on UACC-62 melanoma, in the assay with A498 renal, in the assay on CAKI-1 renal, in the assay on SNB-75 CNS, in the assay on MOLT-4 leukemia and with IGROV1 ovarian was greater than 100 µM throughout. The TGI with HOP-62 NSCLC and with HCC-2998 colon was greater than 100 µM throughout.

With `O=C1C2C3C=CC(C2C(=O)N1CN1CCSCC1)C1C2C(=O)N(CN4CCSCC4)C(=O)C2C31` (centres undefined), the TGI in the assay with UACC-62 melanoma is greater than 100 µM; in the assay with A498 renal, greater than 100 µM; in the assay with CAKI-1 renal, greater than 100 µM; in the assay on SNB-75 CNS, greater than 93 µM; with MOLT-4 leukemia it was greater than 100 µM; with IGROV1 ovarian, greater than 100 µM. Besides, the TGI in the assay with HOP-62 NSCLC and in the assay on HCC-2998 colon was greater than 100 µM each time. In addition, the GI50 was 38.6 µM with SNB-75 CNS and 54.2 µM in the assay with MOLT-4 leukemia.

With `[O-]c1c2c(nn1-c1ccc(Cl)cc1)c1ccccc1c[n+]2Cc1ccccc1`, the TGI in the assay with UACC-62 melanoma was greater than 100 µM; with CAKI-1 renal, greater than 100 µM; with SNB-75 CNS, 69.2 µM; with MOLT-4 leukemia, greater than 100 µM; with IGROV1 ovarian it was greater than 100 µM; in the assay with HOP-62 NSCLC it was greater than 100 µM. Further, the TGI in the assay on HCC-2998 colon is greater than 100 µM.

`C1C[OH+]CC[OH+]CCNCC[OH+]CC[OH+]CCN1.Cl.[Cl-].[Pt+4]`: the GI50 with UACC-62 melanoma, in the assay with A498 renal, with CAKI-1 renal, with MOLT-4 leukemia and in the assay on IGROV1 ovarian was greater than 100 µM in each case. Moreover, the TGI with UACC-62 melanoma, in the assay on A498 renal, in the assay with CAKI-1 renal, in the assay with MOLT-4 leukemia and in the assay on IGROV1 ovarian was greater than 100 µM throughout.

On to `CCN(CC)CCn1c2ccccc2c(=O)c2c(OC)ccc(OC)c21`, for which the TGI with A498 renal, in the assay with CAKI-1 renal, in the assay on MOLT-4 leukemia and with HOP-62 NSCLC was greater than 100 µM each time.

As for `COc1cc(/C=C2/C(=O)N(C(=O)OCc3ccccc3)C(Cc3cc(OC)c(OC)c(C)c3OC)C(=O)N2Cc2ccccc2)c(OC)c(C)c1OC` (centres undefined), the TGI in the assay with UACC-62 melanoma, with A498 renal, in the assay with CAKI-1 renal, in the assay with SNB-75 CNS, with MOLT-4 leukemia and in the assay on IGROV1 ovarian was greater than 100 µM throughout. Moreover, the TGI with HOP-62 NSCLC and in the assay with HCC-2998 colon was greater than 100 µM each time.

Consider `CCOCc1cc(=O)c2c(OC)cc3c(c2o1)CCC(C)(C)O3`, for which the TGI in the assay on UACC-62 melanoma, in the assay with SNB-75 CNS, in the assay on MOLT-4 leukemia, in the assay with IGROV1 ovarian, in the assay with HOP-62 NSCLC and in the assay on HCC-2998 colon was greater than 100 µM throughout.

Regarding `Cc1ccccc1C1CC(c2ccccc2)=NO1` (centres undefined), the TGI with UACC-62 melanoma, with A498 renal, in the assay with CAKI-1 renal, in the assay on SNB-75 CNS, with MOLT-4 leukemia and with IGROV1 ovarian was greater than 100 µM each time. In addition, the TGI with HOP-62 NSCLC and with HCC-2998 colon was greater than 100 µM in each case.

As for `CCOC(=O)c1cccnc1C(OC(C)=O)OC(C)=O`, the TGI in the assay on UACC-62 melanoma, in the assay with A498 renal, in the assay on CAKI-1 renal, in the assay on SNB-75 CNS, in the assay on MOLT-4 leukemia and in the assay on IGROV1 ovarian was greater than 100 µM throughout. Further, the TGI with HOP-62 NSCLC and in the assay with HCC-2998 colon was greater than 100 µM throughout.

As to `O=c1cc(-c2ccccc2)[nH]c2cc(Cl)ccc12`, the TGI in the assay with UACC-62 melanoma was 11.9 µM; in the assay on A498 renal, greater than 100 µM; with CAKI-1 renal, 11.4 µM; in the assay with SNB-75 CNS, 6.07 µM; with MOLT-4 leukemia, 15.9 µM; with IGROV1 ovarian it was greater than 100 µM. Further, the TGI in the assay with HOP-62 NSCLC came out at 13.3 µM; in the assay with HCC-2998 colon, 4.76 µM.

Consider `CCOC(=O)C(C(O)c1ccc([N+](=O)[O-])cc1)P(=O)(OCC)OCC` (centres undefined), for which the TGI with UACC-62 melanoma, in the assay with A498 renal, in the assay with CAKI-1 renal, in the assay on SNB-75 CNS, in the assay on MOLT-4 leukemia and in the assay on IGROV1 ovarian was greater than 100 µM in each case. In addition, the TGI in the assay with HOP-62 NSCLC and with HCC-2998 colon was greater than 100 µM throughout.

With `CC1C2CC=CC(=O)[C@@]2(C)CCC12OCCO2` (some centres undefined), the TGI in the assay with UACC-62 melanoma, in the assay on A498 renal, in the assay with CAKI-1 renal, in the assay with SNB-75 CNS, in the assay on MOLT-4 leukemia and with IGROV1 ovarian was greater than 100 µM in each case. Besides, the TGI with HOP-62 NSCLC and in the assay on HCC-2998 colon was greater than 100 µM throughout.

`CCOC1CC2OC(=O)C1C=C2C(=O)OC` (centres undefined): the TGI was greater than 100 µM with UACC-62 melanoma; greater than 100 µM with A498 renal; 40 µM in the assay on CAKI-1 renal; 48.8 µM in the assay with MOLT-4 leukemia; greater than 100 µM with IGROV1 ovarian; greater than 100 µM in the assay with HOP-62 NSCLC. The compound also returned a TGI in the assay on HCC-2998 colon greater than 100 µM.

For the compound `COC(=O)C(/C(=N\NC(N)=S)C(=O)Nc1ccccc1[N+](=O)[O-])c1cnc2ccccc2n1` (centres undefined), the TGI with UACC-62 melanoma, in the assay with A498 renal, with CAKI-1 renal, in the assay on SNB-75 CNS, with MOLT-4 leukemia and with IGROV1 ovarian was greater than 100 µM in each case. The TGI with HOP-62 NSCLC and in the assay on HCC-2998 colon was greater than 100 µM throughout.

Turning to `C=CCN(N=O)C(=O)NCCCCC(NC(C)=O)C(=O)NCc1ccccc1` (centres undefined), the TGI in the assay on UACC-62 melanoma, with A498 renal, in the assay on CAKI-1 renal, in the assay on SNB-75 CNS, in the assay with MOLT-4 leukemia and with IGROV1 ovarian was greater than 100 µM each time. The same compound registered a TGI with HOP-62 NSCLC greater than 100 µM.
